This is an account of results in patent US20240207327A1, “COMPOSITION INCLUDING PROPOLIS AND SORBUS COMMIXTA AS ACTIVE INGREDIENTS FOR ALLEVIATING AND TREATING INFLAMMATORY DISEASES AND ALLERGIC DISEASES” (Andong National University Industry-Academic Cooperation …, priority 2022, published 2024).

The test system of series [1] is RBL-2H3 basophilic cell line. As to the kind of experiment: beta-Hexosaminidase release assay (degranulation by anti-DNP-IgE / DNP-BSA). Particulars: for degree of degranulation of RBL-2H3 cells (in words) / beta-Hexosaminidase released compared to the positive control: independent treatment; for beta-Hexosaminidase released compared to the positive control: 1 hour pretreatment. It counts as cell-based, Rat. Here is the method: Effects of quercetin, kaempferol, chrysin, and Sorbus commixta ethanolic extract on allergic response were determined by measuring the release of beta-Hexosaminidase through degranulation caused by the antibody-antigen binding in the RBL-2H3 basophilic cells. The RBL-2H3 basophilic cell line of Rat was purchased from ATCC (American Type Culture Collection, USA), and then it was added with a 10% fetal bovine serum and a 1% antibiotics-antimycotic in Dulbecco's modified Eagle's medium, and was subcultured in a 37° C., 5% CO2 incubator. A beta-Hexosaminidase release assay was carried out to figure out effects of independent treatment of any one of the flavonoid components or the Sorbus commixta ethanolic extract, and combined treatment of any one of the flavonoid components (quercetin, kaempferol, chrysin) with Sorbus commixta ethanolic extract on the release of beta-Hexosaminidase through the degranulation of RBL-2H3 basophilic cell line. The RBL-2H3 cells were seeded at 8×10^4 cells/well in the 96 well plates, and stabilized in a 37° C., 5% CO2 incubator for 3 hours, then treated with anti-DNP-IgE (Sigma-Aldrich Inc., USA) to a final concentration of 250 ng/mL for cell sensitization, and incubated for 24 hours. After culturing, the supernatant liquid was removed and washed twice with Siraganian buffer (NaCl 119 mM, KCl 5 mM, Glucose 5.6 mM, PIPES 25 mM, MgCl2, 0.4 mM, CaCl2 1 mM, BSA 0.1%, pH 7.2, Biosolution, Korea), and concentration-specific samples dissolved in Siraganian buffer were pretreated into the cells for 1 hour. After the pretreatment, the final concentration of DNP-BSA (Sigma-Aldrich Inc., USA) was treated to be at 150 ng/mL, and cultured for 1 hour to induce degranulation. After degranulation induction, 80 μL of supernatant and 20 μL of 10 mM 4-Nitrophenyl N-acetyl-β-D-glucosaminide (in 0.1 M citrate buffer, pH 4.5, Sigma-Aldrich Inc., USA) were reacted in the 96 well plate for 4 hours at a 37° C. incubator. After 4 hours, the reaction was terminated by adding 100 μL of 0.5 M sodium carbonate, and the optical density was measured at 405 nm using a Tecan infinite 200 microplate reader. First, RBL-2H3 cells' degranulation induced by antibody-antigen binding was determined when independently treated with any one of the flavonoid components or Sorbus commixta ethanolic extract. RBL-2H3 cells were sensitized with antibodies for one day, pretreated with different concentration levels of 3 selected flavonoid components, or Sorbus commixta ethanol extract for one hour, followed by additionally being treated with antigens. A group treated with neither the extract nor the antigen was a negative control, and a group independently treated with ethanol as the solvent for the sample and induced for degranulation only was a positive control. When RBL-2H3 cell degranulation is induced by antibody-antigen binding, beta-Hexosaminidase, an indicator of early response is released. On top of that, a substrate addition (P-NAG) leads to the degradation of the substrate and the suspension of the degradation reaction, resulting in a color change. In that case, the amount of beta-hexosaminidase may be determined by measuring the optical density, which may it possible to compare the degree of induced inhibition or induced activation of degranulation. The changes in the amount of beta-Hexosaminidase released by the combined treatment of the Sorbus commixta ethanolic extract with any one of the three selected active ingredients of the flavonoid components were intended to be determined. A group treated with neither the extract nor the antigen was a negative control, and a group independently treated with ethanol as the solvent for the sample and induced for degranulation only was a positive control.

The subject of series [2] is RAW 264.7 cell line. As to the kind of experiment: Nitric oxide (NO) production assay in LPS-treated RAW 264.7 (Griess reagent). It is filed as cell-based, mouse. Particulars: for NO production, combined treatment / NO production compared to the control / NO production rate compared with control: LPS 100 ng/mL; for NO production compared to the control / NO production rate compared with control: independent treatment; for NO production rate compared with control: 10 μg/mL; for inhibitory effect on NO production (in words): LPS-induced RAW 264.7, independent treatment. Here is the method:
(§1) RAW 264.7 cell line, a mouse macrophage cell line was purchased from KCLB (Korean Cell Line Bank, Korea). After RAW 264.7 was added with 10% fetal bovine serum (FBS, GIBCO, USA) and 1% antibiotics-antimycotic (GIBCO, USA), the cell was subcultured in Dulbecco's modified Eagle's medium (DMEM, WELGENE, Korea) in a 37° C., 5% CO2 incubator (Thermo Fisher Inc., USA).
After RAW 264.7 cell line was independently treated with any one of the flavonoid componentsor Sorbus commixta extract, and was combinedly treated with any one of the flavonoid components and the Sorbus commixta extract, an evaluation of Nitric Oxide production (NO assay) was conducted to identify effects on NO secretion induced by LPS.
At this time, RAW 264.7 cells were seeded at 1×10^5 cells/well in 96-well plates and cultured in a 37° C., 5% CO2 incubator for 24 hours. Each cell was pretreated with samples by concentration (pinocembrin, quercetin, kaempferol, glangin, and chrysin at concentrations of 1, 2.5, 5, and 10 μg/mL, caffeic acid and p-Coumaric acid at concentrations of 2.5, 5, 10, and 25 μg/mL, and Sorbus commixta ethanol extract at concentrations of 25, 50, 100, and 250 ppm), respectively, and then the cells were treated with LPS (Sigma-Aldrich Inc, USA) to a final concentration of 100 ng/mL to induce the inflammatory response for 20 hours. After the induction of the inflammatory response, a 100 μL supernatant of a 96-well plate was added with a 100 μL Griess reagent (Sigma-Aldrich Inc., USA) at a concentration of 40 mg/mL (in water), and reacted in the dark for 15 minutes, and the optical density was measured at 540 nm using a Tecan infinite 200 microplate reader (Tecan Trading AG, Switzerland). A quantitative line was drawn using Sodium nitrite (Sigma-Aldrich Inc., USA), and each value of optical density was substituted to the quantitative line to determine the amount of produced Nitric Oxide (NO).
In the inflammatory response of macrophages induced by LPS treatment, the treatment effects of any one of the flavonoid components or Sorbus commixta ethanol extract on NO production were determined.
(Nitrite, measured by Griess reagent, commonly stands in for NO production.)

For series [3], the system named is RAW 264.7 cell line. The series is described as follows: MTT cell viability assay, RAW 264.7. It is filed as cell-based. Particulars: mouse, 24 h, 10 μg/mL. Here is the method: as §1
A cell viability rate was analyzed by carrying out an MTT assay in order to determine the toxicity of the flavonoid components and Sorbus commixta ethanolic extract on the cell line treatment. The RAW 264.7 cell line was seeded 5×10^4 cells/well in a 96 well plate, and cultured in a 37° C., 5% CO2 incubator. After the culture, the flavonoid components and Sorbus commixta ethanolic extract were treated and additionally treated for the next 24 hours. After the additional culture, a 0.1 mg/mL MTT solution (Sigma-Aldrich Inc., USA) was dispensed in each well, the cells were cultured for 4 hours before the supernatant was removed. The resulting formazan was dissolved by seeding 100 μL of DMSO (Sigma-Aldrich Inc., USA) into each well, followed by orbital shaking (87.9 rpm) for 15 minutes, and optical density was measured at 540 nm using a Tecan infinite 200 microplate reader. The measured values of optical density were described as a percentage by substituting into the equation below. […]
(In general: Formazan colour is commonly taken as a measure of viable cells.)

Where [4] appears, read: flavonoid 1 μg/mL (first of series) combined with Sorbus commixta ethanol extract.
[5] abbreviates: flavonoid 2.5 μg/mL (second of series) combined with Sorbus commixta ethanol extract.
[6] abbreviates: flavonoid 5 μg/mL (third of series) combined with Sorbus commixta ethanol extract.
[7] abbreviates: flavonoid 10 μg/mL (fourth of series) combined with Sorbus commixta ethanol extract.
Setting [8] is: 1 μg/mL (first of series 1, 2.5, 5, 10 μg/mL).

With `O=c1c(O)c(-c2ccc(O)cc2)oc2cc(O)cc(O)c12` [kaempferol], the “production rate of beta-Hexosaminidase compared to the control group” value (shortened to “production rate … compared to the control group”) in series [1] (2.5 μg/mL mixed with 25 ppm of Sorbus commixta ethanol extract) is on record as 79.8%. Moreover, in series [1], the “degree of degranulation of RBL-2H3 cells (in words)” value was “decreased the degree of degranulation”. For the same compound, in series [1] (0.5 μg/mL), the “beta-Hexosaminidase released compared to the positive control” value was 85%. Also, the “NO production, combined treatment” value is recorded as 75% in series [2] (setting [4]), 71% in series [2] (setting [5]), 60% in series [2] (setting [6]) and 39% in series [2] (setting [7]). Besides, the “NO production compared to the control” value in series [2] (setting [8]) is reported as 92%; in series [2] (2.5 μg/mL (second of series)), 85%; in series [2] (5 μg/mL (third of series)), 66%. The “NO production rate compared with control” value in series [2] was 42%. The “inhibitory effect on NO production (in words)” value in series [2] is listed as “highest inhibitory effect on NO production”.

`O=C1C[C@@H](c2ccccc2)Oc2cc(O)cc(O)c21` [pinocembrin]: the “NO production rate compared with control” value in series [2] was determined as 90%. Besides, in series [3], the cell viability rate result was “greater than 80%”.

For the compound `O=c1cc(-c2ccccc2)oc2cc(O)cc(O)c12` [chrysin], the “production rate … compared to the control group” value in series [1] (1 μg/mL mixed with 25 ppm of Sorbus commixta ethanol extract) came to 95.9%. Further, the “beta-Hexosaminidase released compared to the positive control” value in series [1] (1 μg/mL) turned out to be 83%. In addition, the “NO production, combined treatment” value was 72% in series [2] (setting [4]), 55% in series [2] (setting [5]), 38% in series [2] (setting [6]) and 9% in series [2] (setting [7]). The “NO production compared to the control” value in series [2] (setting [8]) came to 89%; in series [2] (2.5 μg/mL (second of series)), 74%; in series [2] (5 μg/mL (third of series)), 43%. The “NO production rate compared with control” value in series [2] was determined as 10%.

For the compound `O=c1c(O)c(-c2ccc(O)c(O)c2)oc2cc(O)cc(O)c12` [quercetin], in series [1] (0.5 μg/mL mixed with 25 ppm of Sorbus commixta ethanol extract), the “production rate … compared to the control group” value is 86.8%. The “degree of degranulation of RBL-2H3 cells (in words)” value in series [1] was “decreased the degree of degranulation”. Moreover, the “beta-Hexosaminidase released compared to the positive control” value in series [1] (0.5 μg/mL) is 64%. The “NO production, combined treatment” value is reported as 78% in series [2] (setting [4]), 70% in series [2] (setting [5]), 55% in series [2] (setting [6]) and 39% in series [2] (setting [7]). Besides, the “NO production compared to the control” value in series [2] (setting [8]) was 97%; in series [2] (2.5 μg/mL (second of series)) it was 81%; in series [2] (5 μg/mL (third of series)) it was 63%. For the same compound, the “NO production rate compared with control” value in series [2] is given as 41%. Besides, in series [2], the “inhibitory effect on NO production (in words)” value is given as “highest inhibitory effect on NO production”.

On to `O=c1c(O)c(-c2ccccc2)oc2cc(O)cc(O)c12` [galangin], for which, in series [2], the “NO production rate compared with control” value is listed as 82%. Moreover, the cell viability rate entry in series [3] is “greater than 80%”.

Take `O=C(O)/C=C/c1ccc(O)c(O)c1` [caffeic acid]: the “NO production rate compared with control” value in series [2] is on record as 97%.

In the case of “p-coumaric acid (4-Hydroxycinnamic acid)”, in series [2], the “NO production rate compared with control” value is 90%.
